Laboratory results published in patent publication US8247211B2, “Glycopeptide antibiotics” (American Cyanamid Company, priority 2001, dated 2012).
Converted amounts (≈) assume the structure as drawn.

Tests used:
Enterococcus sp. = assay: In vitro antibacterial evaluation: minimum inhibitory concentration (MIC), broth dilution method; assay type: cell-based; conditions: 18 hours at 35° C.
Method in brief: (§1)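 First, organisms are seeded at 5×10^5 CFU/mL into Muller-Hinton II […]. Next, antibiotic is applied across 64-0.06 μg/mL by broth dilution (NCCLS M7-A2). Finally, the lowest inhibitory concentration is recorded as MIC.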

Escherichia coli = assay: as above; assay type: cell-based; conditions: Escherichia coli (GC 4560); 18 hours at 35° C.
Method in brief: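 Inoculum: 5×10^5 CFU/mL. Range: 64-0.06 μg/mL. Medium: Muller-Hinton II […]; NCCLS M7-A2 broth dilution. Endpoint: lowest concentration inhibiting growth. Strains include methicillin-, penicillin- and/or vancomycin-resistant clinical isolates.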

Staphylococcus sp. = assay: as above; assay type: cell-based; conditions: 18 hours at 35° C.
Method in brief: as §1

Streptococcus sp. = assay: as above; assay type: cell-based; conditions: 18 hours at 35° C.
Method in brief: as §1

[1] = tested on: Staphylococcus aureus-SMITH (GC 4543); assay: Acute lethal infection in mice (ED50); assay type: in vivo; conditions: female CD-1 mice, intraperitoneal challenge, intravenous dose 30 min. after infection, 7 day survival ratios
Protocol: The therapeutic effects of glycopeptide antibiotics of Formula I are determined against acute lethal infections with S. aureus (strain Smith), a penicillin resistant strain of S. pneumoniae (strain GC 1894), and a vancomycin resistant strain of E. fecalis (strain GC 6189 and GC 2246). Female mice, CD-1 (Charles River Laboratories), 20 +1-2 gm, are challenged by intraperitoneal injection of sufficient bacteria (suspended in Trypticase Soy Broth or hog gastric mucin) to kill non-treated controls within 24-48 hr. Antibacterial agents, contained in 0.2 mL of saline or 5% dextrose solution, are administered intravenously 30 min. after infection. Five mice are treated at each dose level. The 7 day survival ratios from 3 separate tests are pooled for calculation of median effective dose (ED50).

[2] = broth dilution, inoculum 5×10^5 CFU/mL

SMILES: CCCOc1ccc(COCC2OC(OC3C(CO)OC(Oc4ccc(CC5NC(=O)C(C(C)c6ccccc6)NC(=O)CNC(=O)C(CO)NC(=O)C(C(O)C6CNC(=N)N6C6OC(CO)C(O)C(O)C6O)NC(=O)C(C(O)C6CNC(=N)N6)NC5=O)cc4)C(O)C3O)C(O)C(O)C2O)cc1 (stereo not drawn) [Example 235, Cyclo[glycyl-β-methylphenylalanyl-O-[4-O-[6-O-(4-propoxybenzyl)hexopyranosyl]hexopyranosyl]tyrosyl-3-(2-iminoimidazolidin-4-yl)seryl-3-(3-hexopyranosyl-2-iminoimidazolidin-4-yl)serylseryl]]
- MIC Enterococcus avium (GC 4558) (Enterococcus sp.; Enterococcus avium (GC 4558)): 4 µg/mL (≈ 2.77 µM)
- MIC Enterococcus faecalis (ATCC 29212) (Enterococcus sp.; Enterococcus faecalis (ATCC 29212)): 4 µg/mL (≈ 2.77 µM)
- MIC Enterococcus faecalis (GC 2242) (Enterococcus sp.; Enterococcus faecalis (GC 2242)): 4 µg/mL (≈ 2.77 µM)
- MIC Enterococcus faecalis (GC 2691) (Enterococcus sp.; Enterococcus faecalis (GC 2691)): 4 µg/mL (≈ 2.77 µM)
- MIC Enterococcus faecalis (GC 3059) (Enterococcus sp.; Enterococcus faecalis (GC 3059)): 4 to 8 µg/mL
- MIC Enterococcus faecalis (GC 4552) (Enterococcus sp.; Enterococcus faecalis (GC 4552)): 4 µg/mL (≈ 2.77 µM)
- MIC Enterococcus faecalis (GC 4553) (Enterococcus sp.; Enterococcus faecalis (GC 4553)): 4 µg/mL (≈ 2.77 µM)
- MIC Enterococcus faecalis (GC 4554) (Enterococcus sp.; Enterococcus faecalis (GC 4554)): 4 to 8 µg/mL
- MIC Enterococcus faecalis (GC 6189) (Enterococcus sp.; Enterococcus faecalis (GC 6189)): 4 µg/mL (≈ 2.77 µM)
- MIC Enterococcus faecium (GC 2243) (Enterococcus sp.; Enterococcus faecium (GC 2243)): 4 µg/mL (≈ 2.77 µM)
- MIC Enterococcus faecium (GC 4556) (Enterococcus sp.; Enterococcus faecium (GC 4556)): 4 µg/mL (≈ 2.77 µM)
- MIC Enterococcus faecium (GC 4557) (Enterococcus sp.; Enterococcus faecium (GC 4557)): 0.5 to 2 µg/mL
- MIC Enterococcus faecalis (GC 2242) (Enterococcus sp.; [2]): 4 µg/mL (≈ 2.77 µM)
- MIC Enterococcus faecalis (GC 2691) (Enterococcus sp.; [2]): 4 µg/mL (≈ 2.77 µM)
- MIC Enterococcus faecalis (GC 3059) (Enterococcus sp.; [2]): 4 to 8 µg/mL
- MIC Escherichia coli (GC 4560) (Escherichia coli): 0.5 to 1 µg/mL
- MIC Coagulase Negative Staphylococcus (GC 4547) (Staphylococcus sp.; Coagulase Negative Staphylococcus (GC 4547)): 0.5 to 1 µg/mL
- MIC Coagulase Negative Staphylococcus (GC 4551) (Staphylococcus sp.; Coagulase Negative Staphylococcus (GC 4551)): 0.5 to 1 µg/mL
- MIC Staphylococcus aureus (ATCC 29213) (Staphylococcus sp.; Staphylococcus aureus (ATCC 29213)): 0.5 to 1 µg/mL
- MIC Staphylococcus aureus (GC 1131) (Staphylococcus sp.; Staphylococcus aureus (GC 1131)): 1 to 2 µg/mL
- MIC Staphylococcus aureus (GC 3051) (Staphylococcus sp.; Staphylococcus aureus (GC 3051)): 0.5 to 2 µg/mL
- MIC Staphylococcus aureus (GC 3053) (Staphylococcus sp.; Staphylococcus aureus (GC 3053)): 1 to 2 µg/mL
- MIC Staphylococcus aureus (GC 4541) (Staphylococcus sp.; Staphylococcus aureus (GC 4541)): 0.5 to 1 µg/mL
- MIC Staphylococcus aureus (GC 4542) (Staphylococcus sp.; Staphylococcus aureus (GC 4542)): 0.5 to 2 µg/mL
- MIC Staphylococcus aureus (GC 4544) (Staphylococcus sp.; Staphylococcus aureus (GC 4544)): 1 to 2 µg/mL
- MIC Staphylococcus aureus (GC 4545) (Staphylococcus sp.; Staphylococcus aureus (GC 4545)): 1 to 2 µg/mL
- MIC Staphylococcus aureus-SMITH (GC 4543) (Staphylococcus sp.; Staphylococcus aureus-SMITH (GC 4543)): 0.5 to 1 µg/mL
- MIC Streptococcus pneumoniae (ATCC 6301) (Streptococcus sp.; Streptococcus pneumoniae (ATCC 6301)): 0.12 µg/mL (≈ 0.0831 µM)
- MIC Streptococcus pneumoniae (GC 1894) (Streptococcus sp.; Streptococcus pneumoniae (GC 1894)): <0.06 µg/mL
- MIC Streptococcus pyogenes (GC 4563) (Streptococcus sp.; Streptococcus pyogenes (GC 4563)): 0.25 µg/mL (≈ 0.173 µM)
- MIC Streptococcus pneumoniae (ATCC 6301) (Streptococcus sp.; [2]): 0.12 µg/mL (≈ 0.0831 µM)
- MIC Streptococcus pneumoniae (GC 1894) (Streptococcus sp.; [2]): <0.06 µg/mL
- MIC Streptococcus pyogenes (GC 4563) (Streptococcus sp.; [2]): 0.25 µg/mL (≈ 0.173 µM)
- median effective dose (ED50), Staphylococcus aureus-SMITH (GC 4543) [1]: 0.59 mg/kg
